From paper PMC8658963, “Synthesis and Evaluation of Trypanocidal Activity of Chromane-Type Compounds and Acetophenones” (Molecules, 2021)
Where two headings read alike, the source gives them in different places.

Key:
[1] = test system: human monocyte cell line U-937 (ATCC CRL-1593.2); assay: in vitro; settings: human, 72 h
Description: (§1) Cytotoxicity was evaluated in the human monocyte cell line U-937 (ATCC CRL-1593.2) at the exponential growth phase, adjusted at 1 × 10^5 cells/mL in complete RPMI-1640 medium (RPMI-1640 enriched with 200 mM L-glutamine, 10% inactivated fetal bovine serum (FBS) and 1% of a mixture of 10,000 IU/mL penicillin plus […] streptomycin). Then, in each well of a 96-well tissue culture plate were dispensed […] of cells plus […] of each compound (as one of six serials 1:2 dilution concentrations starting at 368 µM prepared in the same medium). Doxorubicin was included as an internal positive control under the same dilution pattern, starting at 18 µM whereas unexposed cells were used as negative controls. Afterward, cells were incubated for 72 h at 37 °C and 5% CO2. Cell viability was assayed by the MTT reduction assay according to the optical density (O.D) at 570 nm of the resulting reduction of formazan in a Varioskan Flash Multimode Reader (Thermo Scientific, Waltham, MA, USA). Nonspecific absorbance was corrected by subtracting the O.D of the blank solution that corresponded to complete RPMI-1640 medium. The assay was done in triplicate in at least two independent experiments.
(§2) The cytotoxicity was expressed as the medial lethal concentration (LC50), while the trypanocidal activity was defined as the median effective concentration (EC50) according to the percentage of inhibition of cells and parasites, respectively, as described elsewhere. Both LC50 and EC50 were calculated by the Probit analysis. […] Similarly, the trypanocidal activity was graded according to EC50 values, based on the hit criteria proposed by others into high when EC50 was lower than 10 μM, moderate when EC50 values were higher than 10 μM but lower than 50 μM and, low when EC50 was higher than 50 μM. The relation between cytotoxicity and trypanocidal activity was expressed as the index of selectivity (IS) that corresponded to the ratio when dividing the LC50 by the EC50.

[2] = in vitro; settings: human, Cytotoxicity (LC50)
Description: as §1, §2

[3] = test system: intracellular amastigotes of T. cruzi (Tulahuen strain transfected with the β-galactosidase gene); assay: Anti-trypanosomal activity, β-galactosidase readout in infected U937 macrophages, 72 h; format: cell-based, Trypanosoma cruzi; settings: for EC50: intracellular amastigotes of T. cruzi Tulahuen in U937 macrophages, 72 h, average ± SD (SEM), read-out: Trypanocidal Activity (EC50)
Description: This activity was carried out in intracellular amastigotes of T. cruzi (Tulahuen strain transfected with the β-galactosidase gene. Briefly, metacyclic trypomastigotes were cultured at 26 °C for ten days in a modified NNN (Novy−McNeal−Nicolle) medium. U937 cells were seeded in 96-well tissue culture plates at a density of 2.5 × 10^4 cells in 100 μL of complete RPMI-1640 medium/well and exposed for 24 h to phorbol myristate acetate (1 ng/mL) to induce transformation of monocytes into macrophages. Cells were infected with trypomastigotes (5 parasites per cell) and incubated for 24 h at 37 °C, 5% CO2. Wells were washed twice with warm phosphate buffer solution (PBS) to remove noninternalized parasites, and then were added 100 μL of complete RPMI-1640 medium and 100 μL of each concentration of compound (50, 12.5, 3.125 μM). BNZ, at the same concentrations, was used as internal control for trypanocidal activity (positive control), and nontreated cells as controls for infection (negative control). After 72 h of incubation 37 °C, 5% CO2, the viability of intracellular amastigotes was determined by measuring the β-galactosidase activity. For this, 100 μM of Chlorophenol red-β-D- galactopyranoside (CPRG), and 0.1% Nonidet P-40 was added to each well and incubated for 4 h at 37 °C, […] protected from light. After that, measurement β-galactosidase activity was measured at 570 nm on a Varioskan, Thermo spectrophotometer. Nonspecific absorbance was subtracted from the measurement. Infected cells exposed to benznidazole were used as controls for anti-trypanosomal activity. Determinations were done in triplicate with at least two independent experiments.

CC(=O)c1c(O)cccc1O [Compound 7, 1-(2,6-Dihydroxyphenyl)ethan-1-one]
CC50 [1]: 15.3 ± 1.9 µM
CC50 at 72 h [2]: 10.5 ± 0.6 µM
SI (index of selectivity, IS = LC50/EC50) ([3]; LC50 in U937 cells divided by EC50 against T. cruzi): 1.5
Trypanocidal activity compared with the control drug BNZ ([3]; T. cruzi intracellular amastigotes, result in words): much better trypanocidal activity than the control drug BNZ
EC50 ([3]; Trypanosoma cruzi, TULAHUEN, U-937, 72 h): < 10 µM
EC50 [3]: 10.5 ± 0.6 µM
